This is an account of results in patent US20080219922A1, “Alzheimer's Disease Imaging Agents” (priority 2005, published 2008).

Data set [1] in a line: Partition coefficient determination (1-octanol/phosphate buffer pH 7.4). It is filed as physicochemical. As to conditions: 1-octanol / 0.02 M sodium phosphate buffer pH 7.4. As to the method:
Measurement of distribution coefficient of [^18F]tracer was performed based on the method described by Wilson et al. [Labelled Compd. Radiopharm., 42:1277-1288 (1999)] using 0.02 M sodium phosphate buffer at pH 7.4 and 1-octanol. Basically, the test tubes containing ˜20 μCi of the radiotracer and 2 mL each of 1-octanol and phosphate buffer were vortexed for 10 min at room temperature and then centrifuged for 5 min. Samples (0.5 mL) from 1-octanol and buffer layers were counted in a Packard Cobra II auto-gamma counter (Perkin-Elmer, Downers Grove, Ill.) and decay corrected. The measurement was repeated three times. The log P7.4 value was calculated as follows: log P7.4 log [counts in octanol phase/counts in buffer phase].

For data set [2] the following is noted: rhesus monkey, in vivo, iv.
Protocol: In order to assess brain uptake and clearance, FZ 202-1 and FZ 202-2 were radiolabeled with fluorine-18. The kinetics of fluorine-18 labeled FZ 202-1 and FZ 202-2 in brain were determined by microPET in rhesus monkeys.
PET study was performed in a male rhesus monkey weighing 6-10 kg using a Concorde MicroPET P4 imaging system. The animal was initially anesthetized with an intramuscular injection of Telazol (3 mg/kg), intubated, and then maintained on a 1% isoflurane/5% oxygen gas mixture throughout the imaging session. The monkey was placed in the PET scanner and the head was immobilized. Blood pressure, heart and respiratory rates, and expired CO2 and oxygen saturation levels were monitored continuously during the PET study. A transmission scan was obtained with a germanium-68 source prior to the PET study for attenuation correction of the emission data. Brain emission scans were performed following the intravenous administration of [^18F]tracer (5 mCi). Serial dynamic transaxial images were acquired for a total of 120 min and then binned for analysis. Emission data acquired were subject to iterative reconstruction (OSEM, two iterations, 40 subsets) with no pre- or postfiltering to provide images with an isotropic resolution of 3 mm fwhm. […]
Data set [3] has as its target T1, amyloid plaques in sections from postmortem AD brains (Homo sapiens, UniProt P05067).
T1 construct: abundant amyloid plaques or deposits composed of amyloid-β(Aβ) peptides; from tissue; host or cells: postmortem brain tissue sections of frontal lobe from an AD patient
Kind of data set: In vitro film autoradiography of postmortem AD brain sections. In kind it is binding. The text has this:
FZ 202-1 in postmortem brain tissue sections of frontal lobe from an AD patient. A: AD tissue+[^18F] FZ 202-1. B: [^18F] […] C: […] [^18F]

T1 sequence (P05067 672-713 limits assumed): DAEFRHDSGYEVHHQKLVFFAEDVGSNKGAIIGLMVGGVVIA

On to `Cc1cc2nc(-c3ccc(N(C)C)cc3)cn2nc1F` [FZ 202-1], for which the “Log P7.4” value in data set [1] is recorded as 2.69.
Regarding `Cc1cc(F)nn2cc(-c3ccc(N(C)C)cc3)nc12` [FZ 202-2], in data set [1], the “Log P7.4” value is recorded as 2.83.
On the same count and under the same terms, as for `CN(C)c1ccc(-c2cn3cc([125I])ccc3n2)cc1` [IMPY, reference compound], the figure is 3.58.
Regarding `Cc1cc2nc(-c3ccc(N(C)C)cc3)cn2nc1F` [[^18F]-FZ 202-1], the “radioactivity ratios of peak-to-115 min in cerebellum, frontal cortex and subcortical white matter” value in data set [2] (male) is 2.5-4.9. The “bone uptake of radioactivity in the skull” value in data set [2] is “No bone uptake”. The “specific binding after pretreatment with nonradioactive PIB and IMPY” value in data set [3] (AD specimen, FIG. 3: +1 mM PIB, +10 mM IMPY) was “eliminated”. In data set [3] (postmortem AD brain sections, frontal lobe, film autoradiography), the “specific binding to amyloid plaques (plaque labeling)” value was “clearly observed in cortical gray matter, but not in the white matter”.
